Values quoted from earlier work as cited in publication PMC5263201, “GABAA receptor occupancy by subtype selective GABAAα2,3 modulators: PET studies in humans” (Psychopharmacology, 2016).
Like-named read-outs stand apart in the source and are kept apart here.

Columns and labels:
[1] = parameters: method as in AstraZeneca Single Ascending Dose studies; conditions: 6 subjects, ref AstraZeneca Single Ascending Dose studies, cited from earlier work
[2] = test system: generalized anxiety disorder; parameters: method as in Chen et al. 2014, ClinTrials.gov; conditions: ref Chen et al. 2014, ClinTrials.gov; cited from earlier work

## CCCNC(=O)c1nnc2c(-c3c(F)cccc3OC)cccc2c1N [AZD7325]
[1]; AZD7325 0.2 mg
  Number of subjects with at least one adverse event: 2 (33) Number (%) of patients
  anxiety: 0 Number (%) of patients
  dizziness: 0 Number (%) of patients
  euphoric mood: 0 Number (%) of patients
  hypoaesthesia: 0 Number (%) of patients
  paraesthesia: 0 Number (%) of patients
  somnolence: 0 Number (%) of patients
[1]; AZD7325 1mg
  Number of subjects with at least one adverse event: 2 (33) Number (%) of patients
  anxiety: 0 Number (%) of patients
  dizziness: 0 Number (%) of patients
  euphoric mood: 0 Number (%) of patients
  hypoaesthesia: 0 Number (%) of patients
  paraesthesia: 0 Number (%) of patients
  somnolence: 0 Number (%) of patients
[1]; AZD7325 5mg
  Number of subjects with at least one adverse event: 4 (67) Number (%) of patients
  anxiety: 0 Number (%) of patients
  dizziness: 0 Number (%) of patients
  euphoric mood: 0 Number (%) of patients
  hypoaesthesia: 1 (17) Number (%) of patients
  paraesthesia: 0 Number (%) of patients
  somnolence: 1 (17) Number (%) of patients
[1]; AZD7325 10 mg
  Number of subjects with at least one adverse event: 2 (33) Number (%) of patients
  anxiety: 0 Number (%) of patients
  dizziness: 2 (33) Number (%) of patients
  euphoric mood: 0 Number (%) of patients
  hypoaesthesia: 0 Number (%) of patients
  paraesthesia: 0 Number (%) of patients
  somnolence: 0 Number (%) of patients
[1]; AZD7325 20 mg
  Number of subjects with at least one adverse event: 1 (17) Number (%) of patients
  anxiety: 0 Number (%) of patients
  dizziness: 0 Number (%) of patients
  euphoric mood: 1 (17) Number (%) of patients
  hypoaesthesia: 0 Number (%) of patients
  paraesthesia: 0 Number (%) of patients
  somnolence: 0 Number (%) of patients
[1]; AZD7325 30 mg
  Number of subjects with at least one adverse event: 3 (50) Number (%) of patients
  anxiety: 0 Number (%) of patients
  dizziness: 1 (17) Number (%) of patients
  euphoric mood: 1 (17) Number (%) of patients
  hypoaesthesia: 0 Number (%) of patients
  paraesthesia: 0 Number (%) of patients
  somnolence: 1 (17) Number (%) of patients
[1]; AZD7325 50 mg
  Number of subjects with at least one adverse event: 1 (50) Number (%) of patients
  anxiety: 0 Number (%) of patients
  dizziness: 0 Number (%) of patients
  euphoric mood: 0 Number (%) of patients
  hypoaesthesia: 0 Number (%) of patients
  paraesthesia: 0 Number (%) of patients
  somnolence: 0 Number (%) of patients
[1]; AZD7325 75 mg
  Number of subjects with at least one adverse event: 4 (67) Number (%) of patients
  anxiety: 0 Number (%) of patients
  dizziness: 0 Number (%) of patients
  euphoric mood: 3 (50) Number (%) of patients
  hypoaesthesia: 0 Number (%) of patients
  paraesthesia: 1 (17) Number (%) of patients
  somnolence: 0 Number (%) of patients
[1]; AZD7325 100 mg
  Number of subjects with at least one adverse event: 4 (67) Number (%) of patients
  anxiety: 1 (17) Number (%) of patients
  dizziness: 2 (33) Number (%) of patients
  euphoric mood: 1 (17) Number (%) of patients
  hypoaesthesia: 0 Number (%) of patients
  paraesthesia: 0 Number (%) of patients
  somnolence: 1 (17) Number (%) of patients
[2]
  anxiolytic effect in patients with generalized anxiety disorder: only a weak anxiolytic effect
